Results as given in patent publication US10988792B2, “Methods for antimicrobial resistance determination” (bioMerieux, Inc., priority 2009, dated 2021).

What was measured:
[1] = tested on: S. aureus strains ATCC 25923 (MSSA) and D14906 (MRSA); experiment: Time course of BOCILLIN-FL binding
Description: Samples of S. aureus strains ATCC 25923 (MSSA) and D14906 (MRSA) were grown in BacT/ALERT SA culture media at 37° C. until exponential growth was reached (8-10 hours). The OD 660 nm of each culture was measured and both suspensions were adjusted to 0.50 with pre-warmed SA media. BOCILLIN™-FL was diluted in pre-warmed SA media, filtered through a 0.2 μm filter and kept at 37° C. Samples of the bacteria (9.0 ml) were mixed with 1.0 ml of 100 μM BOCILLIN™-FL, mixed well, and dispensed as ten 1.0 ml aliquots into microfuge tubes containing 0.2 ml of the same oil blend used in Example 1. All tubes except the T0 tube were placed at 37° C. Tubes were removed and processed at 6, 11, 16, 22, 45, 60, 75, and 91 minutes. Each tube was centrifuged for 1 minute, the supernatant was aspirated, and the pellet was resuspended in 0.1 ml PBS and then added to 3.0 ml PBS in an acrylic cuvette. The sample was scanned in the FluoroLog-3 system at an excitation wavelength of 490 nm and the fluorescence emission at 510 nm was recorded.

[2] = tested on: S. aureus D14906 (MRSA); experiment: BOCILLIN-FL metabolic labeling (culturing cells with BOCILLIN-FL); type: binding
Description: (§1) Two experimental approaches were used to test BOCILLIN™-FL (Molecular Probes, Invitrogen) binding to S. aureus: (1) treating cells with sodium hydroxide (NaOH), neutralizing, adding BOCILLIN™-FL, then separating the cells (harsh pretreatment); and (2) culturing cells with BOCILLIN™-FL, then separating the cells (metabolic labeling).
(§2) For the second method, the two bacterial suspensions (13 ml) were mixed with BOCILLIN™-FL (175 μl of 1.0 mg/ml stock). The mixtures were aliquoted in 1.0 ml samples into microfuge tubes containing 0.2 ml of oil blend. The tubes were incubated at 37° C. for various time-points (keeping 1 set of tubes on ice for the T0 time-point). One set of tubes was removed at 30 minutes and the cells separated from free BOCILLIN™-FL by washing twice with PBS. One set of tubes was removed at 30, 52, 68, and 86 minutes and the cells separated from free BOCILLIN™-FL by centrifugation through the oil blend. The cells were recovered and resuspended in 3 ml PBS. The samples were scanned in the FluoroLog-3 system at an excitation wavelength of 490 nm and the fluorescence emission at 510 nm was recorded.

[3] = tested on: S. aureus ATCC 25923 (MSSA); experiment: as above; type: binding; conditions: for MSSA/MRSA Ratio: MSSA (25923)/MRSA (D14906); for BOCILLIN-FL binding, fluorescence emission at 510 nm (excitation 490 nm), raw data: MSSA (25923)
Description: as §1, §2

[4] = tested on: S. aureus D14906 (Methicillin-Resistant; MRSA); experiment: BOCILLIN-FL binding after NaOH treatment (harsh pretreatment), oil blend separation
Description: as §1
(§3) For the first method, S. aureus strains ATCC 25923 (Methicillin-Sensitive; MSSA) and D14906 (Methicillin-Resistant; MRSA) were cultured until exponential growth (6 hours) in tryptic soy broth (TSB). Samples of each suspension (0.9 ml in TSB) and 0.1 N NaOH (0.1 ml; ±20 μl 7.5% TRITON® X100-R) were vortexed for 5 seconds, then either neutralized immediately or after 1 minute by adding 1 M KH2PO4 (0.125 ml) and vortexing for 5 seconds. BOCILLIN™-FL (15 μl of 1.0 mg/ml) was added to the suspension, which was then vortexed, and incubated for 5 minutes at room temperature. Unbound BOCILLIN™-FL was removed by centrifuging the mixture over 0.2 ml of an oil blend optimized to separate microorganisms from culture media (1.0 part of Type DF microscope immersion oil+0.875 parts of Drakeol 5 mineral oil) at 10,000 rpm for 1 minute. The supernatant and oil layer were removed and the pellet resuspended in 3.0 ml PBS, pH 7.4. The sample was scanned in the FluoroLog-3 system at an excitation wavelength of 490 nm and the fluorescence emission at 510 nm was recorded.

[5] = tested on: S. aureus ATCC 25923 (Methicillin-Sensitive; MSSA); experiment: as above; conditions: for MSSA/MRSA Ratio: MSSA (25923)/MRSA (D14906); for BOCILLIN-FL binding, fluorescence emission at 510 nm (excitation 490 nm): MSSA (25923)
Description: as §1, §3

[6] = 30′ at 37° C., washed x 2 (PBS)

In the case of `Cc1cc(C)n2c1C=C1C=CC(CCC(=O)Nc3ccc(OCC(=O)N[C@@H]4C(=O)N5[C@@H]4SC(C)(C)[C@@H]5C(=O)[O-])cc3)=[N+]1[B-]2(F)F.[Na+]` [BOCILLIN™-FL], the “BOCILLIN-FL bound by the MSSA strain, more than the MRSA strain, per cell basis” value ([1]; 1.0 ml of 100 μM BOCILLIN-FL mixed with 9.0 ml bacteria, irrespective of the culture time) is reported as 2-3 times, the “Time at which maximal binding was measured” value ([1]; room temperature (the T0 tube), oil method) is reported as 5 min and the “BOCILLIN-FL binding, fluorescence emission at 510 nm (excitation 490 nm), raw data” value (from here on “BOCILLIN-FL binding … raw data”) ([2]; 30′ at 37° C., separation Oil) is reported as 326.790. For the same compound, the “BOCILLIN-FL binding … raw data” value [2, 6] was 206,250, the “BOCILLIN-FL binding … raw data” value ([2]; 52′ at 37° C., separation Oil) was 363,000 and the “BOCILLIN-FL binding … raw data” value ([2]; 68′ at 37° C., separation Oil) was 346,270. The “BOCILLIN-FL binding … raw data” value ([2]; 86′ at 37° C., separation Oil) was 510,150, the “BOCILLIN-FL binding … raw data” value ([2]; T0 (ice), separation Oil) was 1,163,240 and the “BOCILLIN-FL bound by the MRSA strain, less than the MSSA strain, per cell basis” value ([3]; BOCILLIN-FL signal normalized to the microbial tryptophan signal (FIG. 1)) was 3-4 fold. For the same compound, the “MSSA/MRSA Ratio” value ([3]; 30′ at 37° C., separation Oil) was 5.60, the “MSSA/MRSA Ratio” value [3, 6] was 2.00 and the “MSSA/MRSA Ratio” value ([3]; 52′ at 37° C., separation Oil) was 5.35. For the same compound, the “MSSA/MRSA Ratio” value ([3]; 68′ at 37° C., separation Oil) was 7.17, the “MSSA/MRSA Ratio” value ([3]; 86′ at 37° C., separation Oil) was 4.48 and the “MSSA/MRSA Ratio” value ([3]; T0 (ice), separation Oil) was 2.36. The “BOCILLIN-FL binding … raw data” value ([3]; 30′ at 37° C., separation Oil) was 1,831,790, the “BOCILLIN-FL binding … raw data” value [3, 6] was 410,830 and the “BOCILLIN-FL binding … raw data” value ([3]; 52′ at 37° C., separation Oil) was 1,941,930. The “BOCILLIN-FL binding … raw data” value ([3]; 68′ at 37° C., separation Oil) was 2,481,450, the “BOCILLIN-FL binding … raw data” value ([3]; 86′ at 37° C., separation Oil) was 2,285,980 and the “BOCILLIN-FL binding … raw data” value ([3]; T0 (ice), separation Oil) was 2,745,600. For the same compound, the “BOCILLIN-FL bound by the MRSA strain, less than the MSSA strain” value ([3]; raw data (Table 2), metabolic labeling) was 2-7 fold, the “BOCILLIN-FL binding, fluorescence emission at 510 nm (excitation 490 nm)” value ([4]; a = 5″ at pH 12) was 1.6 × 10^6 and the “BOCILLIN-FL binding, fluorescence emission at 510 nm (excitation 490 nm)” value ([4]; b = 60″ at pH 12) was 0.9 × 10^6. The “BOCILLIN-FL binding, fluorescence emission at 510 nm (excitation 490 nm)” value ([4]; c = 5″ at pH 12 + TX100) was 0.6 × 10^6, the “BOCILLIN-FL binding, fluorescence emission at 510 nm (excitation 490 nm)” value ([4]; d = 60″ at pH 12 + TX100) was 0.4 × 10^6 and the “MSSA/MRSA Ratio” value ([5]; a = 5″ at pH 12) was 2.3. For the same compound, the “MSSA/MRSA Ratio” value ([5]; b = 60″ at pH 12) was 1.1, the “MSSA/MRSA Ratio” value ([5]; c = 5″ at pH 12 + TX100) was 1.5 and the “MSSA/MRSA Ratio” value ([5]; d = 60″ at pH 12 + TX100) was 2.0. The “BOCILLIN-FL binding, fluorescence emission at 510 nm (excitation 490 nm)” value ([5]; a = 5″ at pH 12) was 3.7 × 10^6, the “BOCILLIN-FL binding, fluorescence emission at 510 nm (excitation 490 nm)” value ([5]; b = 60″ at pH 12) was 1.0 × 10^6 and the “BOCILLIN-FL binding, fluorescence emission at 510 nm (excitation 490 nm)” value ([5]; c = 5″ at pH 12 + TX100) was 0.9 × 10^6. The “BOCILLIN-FL binding, fluorescence emission at 510 nm (excitation 490 nm)” value ([5]; d = 60″ at pH 12 + TX100) was 0.8 × 10^6.
